PubChem BioAssay (NCI)
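These data come from cells grown in 96-well plates and exposed to compound for 48 hours at five concentrations. Abbreviation: GI50, concentration required for 50% inhibition of growth. TGI: concentration producing complete growth inhibition.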

Assays:
Experiment in all cases: growth of human tumour cells (NCI), 48 h
786-0 renal = test system: 786-0 renal
A498 renal = test system: A498 renal
A549 NSCLC = test system: A549 NSCLC
ACHN renal = test system: ACHN renal
BT-549 breast = test system: BT-549 breast
CAKI-1 renal = test system: CAKI-1 renal
CCRF-CEM leukemia = test system: CCRF-CEM leukemia
COLO 205 colon = test system: COLO 205 colon
DU-145 prostate = test system: DU-145 prostate
EKVX NSCLC = test system: EKVX NSCLC
HCC-2998 colon = test system: HCC-2998 colon
HCT-116 colon = test system: HCT-116 colon
HCT-15 colon = test system: HCT-15 colon
HL-60(TB) leukemia = test system: HL-60(TB) leukemia
HOP-62 NSCLC = test system: HOP-62 NSCLC
HOP-92 NSCLC = test system: HOP-92 NSCLC
HS 578T breast = test system: HS 578T breast
HT29 colon = test system: HT29 colon
IGROV1 ovarian = test system: IGROV1 ovarian
K-562 leukemia = test system: K-562 leukemia
KM12 colon = test system: KM12 colon
LOX IMVI melanoma = test system: LOX IMVI melanoma
M14 melanoma = test system: M14 melanoma
MALME-3M melanoma = test system: MALME-3M melanoma
MDA-MB-231 breast = test system: MDA-MB-231 breast
MDA-MB-435 = test system: MDA-MB-435
MOLT-4 leukemia = test system: MOLT-4 leukemia
NCI-H226 lung = test system: NCI-H226 lung
NCI-H23 lung = test system: NCI-H23 lung
NCI-H460 lung = test system: NCI-H460 lung
NCI-H522 lung = test system: NCI-H522 lung
NCI/ADR-RES ovarian = test system: NCI/ADR-RES ovarian
OVCAR-3 ovarian = test system: OVCAR-3 ovarian
OVCAR-4 ovarian = test system: OVCAR-4 ovarian
OVCAR-5 ovarian = test system: OVCAR-5 ovarian
OVCAR-8 ovarian = test system: OVCAR-8 ovarian
PC-3 prostate = test system: PC-3 prostate
RPMI-8226 leukemia = test system: RPMI-8226 leukemia
RXF 393 renal = test system: RXF 393 renal
SF-268 CNS = test system: SF-268 CNS
SF-295 CNS = test system: SF-295 CNS
SF-539 CNS = test system: SF-539 CNS
SK-MEL-2 melanoma = test system: SK-MEL-2 melanoma
SK-MEL-28 melanoma = test system: SK-MEL-28 melanoma
SK-MEL-5 melanoma = test system: SK-MEL-5 melanoma
SK-OV-3 ovarian = test system: SK-OV-3 ovarian
SN12C renal = test system: SN12C renal
SNB-19 CNS = test system: SNB-19 CNS
SNB-75 CNS = test system: SNB-75 CNS
SR leukemia = test system: SR leukemia
SW-620 colon = test system: SW-620 colon
T-47D breast = test system: T-47D breast
TK-10 renal = test system: TK-10 renal
U251 CNS = test system: U251 CNS
UACC-257 melanoma = test system: UACC-257 melanoma
UACC-62 melanoma = test system: UACC-62 melanoma
UO-31 renal = test system: UO-31 renal

Structure (SMILES): O=C1/C(=C/c2cccc([N+](=O)[O-])c2)COc2ccc(O)cc21
- GI50 (786-0 renal): 1850 nM
- TGI (786-0 renal): 3830 nM
- GI50 (A498 renal): 3350 nM
- TGI (A498 renal): 13400 nM
- GI50 (A549 NSCLC): 4660 nM
- TGI (A549 NSCLC): 16800 nM
- GI50 (ACHN renal): 1750 nM
- TGI (ACHN renal): 3210 nM
- GI50 (BT-549 breast): 2190 nM
- TGI (BT-549 breast): 4460 nM
- GI50 (CAKI-1 renal): 1780 nM
- TGI (CAKI-1 renal): 3580 nM
- GI50 (CCRF-CEM leukemia): 408 nM
- TGI (CCRF-CEM leukemia): 1850 nM
- GI50 (COLO 205 colon): 1580 nM
- TGI (COLO 205 colon): 3270 nM
- GI50 (DU-145 prostate): 2000 nM
- TGI (DU-145 prostate): 4260 nM
- GI50 (EKVX NSCLC): 3860 nM
- TGI (EKVX NSCLC): 13700 nM
- GI50 (HCC-2998 colon): 1750 nM
- TGI (HCC-2998 colon): 3210 nM
- GI50 (HCT-116 colon): 1190 nM
- TGI (HCT-116 colon): 2820 nM
- GI50 (HCT-15 colon): 1700 nM
- TGI (HCT-15 colon): 3490 nM
- GI50 (HL-60(TB) leukemia): 1690 nM
- TGI (HL-60(TB) leukemia): 4030 nM
- GI50 (HOP-62 NSCLC): 3210 nM
- TGI (HOP-62 NSCLC): 12100 nM
- GI50 (HOP-92 NSCLC): 2510 nM
- TGI (HOP-92 NSCLC): 7890 nM
- GI50 (HS 578T breast): 3000 nM
- TGI (HS 578T breast): 9400 nM
- GI50 (HT29 colon): 1920 nM
- TGI (HT29 colon): 4580 nM
- GI50 (IGROV1 ovarian): 1730 nM
- TGI (IGROV1 ovarian): 3340 nM
- GI50 (K-562 leukemia): 506 nM
- TGI (K-562 leukemia): 11800 nM
- GI50 (KM12 colon): 1680 nM
- TGI (KM12 colon): 3320 nM
- GI50 (LOX IMVI melanoma): 1490 nM
- TGI (LOX IMVI melanoma): 2920 nM
- GI50 (M14 melanoma): 1720 nM
- TGI (M14 melanoma): 3540 nM
- GI50 (MALME-3M melanoma): 2370 nM
- TGI (MALME-3M melanoma): 6750 nM
- GI50 (MDA-MB-231 breast): 2070 nM
- TGI (MDA-MB-231 breast): 4750 nM
- GI50 (MDA-MB-435): 1910 nM
- TGI (MDA-MB-435): 4050 nM
- GI50 (MOLT-4 leukemia): 2050 nM
- TGI (MOLT-4 leukemia): 5830 nM
- GI50 (NCI-H226 lung): 2190 nM
- TGI (NCI-H226 lung): 5230 nM
- GI50 (NCI-H23 lung): 2020 nM
- TGI (NCI-H23 lung): 4640 nM
- GI50 (NCI-H460 lung): 2690 nM
- TGI (NCI-H460 lung): 6650 nM
- GI50 (NCI-H522 lung): 1470 nM
- TGI (NCI-H522 lung): 3020 nM
- GI50 (NCI/ADR-RES ovarian): 2930 nM
- TGI (NCI/ADR-RES ovarian): 10800 nM
- GI50 (OVCAR-3 ovarian): 1710 nM
- TGI (OVCAR-3 ovarian): 3130 nM
- GI50 (OVCAR-4 ovarian): 3300 nM
- TGI (OVCAR-4 ovarian): 11100 nM
- GI50 (OVCAR-5 ovarian): 2110 nM
- TGI (OVCAR-5 ovarian): 4760 nM
- GI50 (OVCAR-8 ovarian): 2670 nM
- TGI (OVCAR-8 ovarian): 9520 nM
- GI50 (PC-3 prostate): 2150 nM
- TGI (PC-3 prostate): 5450 nM
- GI50 (RPMI-8226 leukemia): 236 nM
- TGI (RPMI-8226 leukemia): 604 nM
- GI50 (RXF 393 renal): 1730 nM
- TGI (RXF 393 renal): 3280 nM
- GI50 (SF-268 CNS): 2860 nM
- TGI (SF-268 CNS): 10300 nM
- GI50 (SF-295 CNS): 6940 nM
- TGI (SF-295 CNS): 19800 nM
- GI50 (SF-539 CNS): 1870 nM
- TGI (SF-539 CNS): 3730 nM
- GI50 (SK-MEL-2 melanoma): 2100 nM
- TGI (SK-MEL-2 melanoma): 5300 nM
- GI50 (SK-MEL-28 melanoma): 2020 nM
- TGI (SK-MEL-28 melanoma): 4240 nM
- GI50 (SK-MEL-5 melanoma): 1800 nM
- TGI (SK-MEL-5 melanoma): 3370 nM
- GI50 (SK-OV-3 ovarian): 4640 nM
- TGI (SK-OV-3 ovarian): 15900 nM
- GI50 (SN12C renal): 1790 nM
- TGI (SN12C renal): 3470 nM
- GI50 (SNB-19 CNS): 1960 nM
- TGI (SNB-19 CNS): 3970 nM
- GI50 (SNB-75 CNS): 2630 nM
- TGI (SNB-75 CNS): 14900 nM
- GI50 (SR leukemia): 278 nM
- TGI (SR leukemia): 1180 nM
- GI50 (SW-620 colon): 521 nM
- TGI (SW-620 colon): 2080 nM
- GI50 (T-47D breast): 2240 nM
- TGI (T-47D breast): 6300 nM
- GI50 (TK-10 renal): 2770 nM
- TGI (TK-10 renal): 9110 nM
- GI50 (U251 CNS): 1560 nM
- TGI (U251 CNS): 2900 nM
- GI50 (UACC-257 melanoma): 2370 nM
- TGI (UACC-257 melanoma): 6660 nM
- GI50 (UACC-62 melanoma): 1920 nM
- TGI (UACC-62 melanoma): 4030 nM
- GI50 (UO-31 renal): 1510 nM
- TGI (UO-31 renal): 2930 nM
